Read-outs that look alike come from different tables or passages of the source.
Tests used:
[1] = system: shunt pathway; assay: Test Code 036 (C-Shunt inhibitor), lysis of human erythrocytes in autologous serum activated by cobra venom factor; format: cell-based; conditions: activity in wells, twofold serial dilution assay; higher well number indicates higher activity
Source text: (§1) An active inhibitor protects C2 from C1 and C4; (ii) Test Code 035 (C3-C9 inhibitor)--This test determines the ability of the late components of human complement (C3-C9) to lyse EAC 142 in the presence of appropriate dilutions of the test compound. An active inhibitor protects EAC 142 from lysis by human C3-C9; (iii) Test Code 036 (C-Shunt inhibitor)--In this test human erythrocytes rendered fragile are lysed in autologous serum via the shunt pathway activated by cobra venom factor in the presence of appropriate dilutions of the test compound. Inhibition of the shunt pathway results in failure of lysis; (iv) Forssman Vasculitis Test--Here, the well known complement dependent lesion, Forssman vasculitis, is produced in guinea pigs by intradermal injection of rabbit anti-Forssman antiserum. […] Percent inhibition is calculated by comparison with simultaneous controls. […]

[2] = system: complement activity; assay: Guinea Pig Intraperitoneal Test (GPIP), serum complement activity; format: in vivo; conditions: Cavia porcellus, ip, 200 mg./kg. i.p., vs simultaneous controls
Source text: An active inhibitor protects C2 from C1 and C4; (ii) Test Code 035 (C3-C9 inhibitor)--This test determines the ability of the late components of human complement (C3-C9) to lyse EAC 142 in the presence of appropriate dilutions of the test compound. An active inhibitor protects EAC 142 from lysis by human C3-C9; (iii) Test Code 036 (C-Shunt inhibitor)--In this test human erythrocytes rendered fragile are lysed in autologous serum via the shunt pathway activated by cobra venom factor in the presence of appropriate dilutions of the test compound. Inhibition of the shunt pathway results in failure of lysis; (iv) Forssman Vasculitis Test--Here, the well known complement dependent lesion, Forssman vasculitis, is produced in guinea pigs by intradermal injection of rabbit anti-Forssman antiserum. The lesion is measured in terms of diameter, edema and hemorrhage and the extent to which a combined index of these is inhibited by prior intraperitoneal injection of the test compound at 200 mg./kg. is then reported, unless otherwise stated; (v) Forssman Shock Test--Lethal shock is produced in guinea pigs by an i.v. injection of anti-Forssman antiserum and the harmonic mean death time of treated guinea pigs is compared with that of simultaneous controls; (vi) Complement Level Reduction Test--In this test, the above dosed guinea pigs, or others, are bled for serum and the complement level is determined in undiluted serum by the capillary tube method of U.S. Pat. No. 3,876,376 and compared to undosed control guinea pigs; (vii) Cap 50 Test--Here, appropriate amounts of the test compound are added to a pool of guinea pig serum in vitro, after which the undiluted serum capillary tube assay referred to above is run. The concentration of compound inhibiting 50% is reported; (viii) Guinea Pig Intraperitoneal Test (GPIP)--Guinea Pigs weighing about 300 g. are dosed intraperitoneally (i.p.) with 200 mg./kg. of the test compound dissolved in saline and adjusted to pH 7-8. […] Percent inhibition is calculated by comparison with simultaneous controls. […]

[3] = target: T1, activated human C1 (Homo sapiens, UniProt P09871); assay: Test Code 026 (C1 inhibitor); format: biochemical; conditions: activity in wells, twofold serial dilution assay; higher well number indicates higher activity
T1 sequence (P09871 16-437 limits assumed): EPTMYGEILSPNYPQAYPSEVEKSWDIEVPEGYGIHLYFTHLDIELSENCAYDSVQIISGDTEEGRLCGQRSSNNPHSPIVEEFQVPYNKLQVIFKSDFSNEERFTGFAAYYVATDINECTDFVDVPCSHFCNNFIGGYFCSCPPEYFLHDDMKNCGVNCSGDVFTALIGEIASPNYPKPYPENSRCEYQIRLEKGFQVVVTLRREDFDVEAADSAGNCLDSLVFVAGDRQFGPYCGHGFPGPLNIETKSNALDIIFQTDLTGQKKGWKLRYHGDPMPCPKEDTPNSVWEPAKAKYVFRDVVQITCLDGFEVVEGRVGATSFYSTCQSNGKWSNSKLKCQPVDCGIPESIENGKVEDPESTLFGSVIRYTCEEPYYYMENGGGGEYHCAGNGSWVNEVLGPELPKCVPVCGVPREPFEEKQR
T1 sequence (P09871 438-688 limits assumed): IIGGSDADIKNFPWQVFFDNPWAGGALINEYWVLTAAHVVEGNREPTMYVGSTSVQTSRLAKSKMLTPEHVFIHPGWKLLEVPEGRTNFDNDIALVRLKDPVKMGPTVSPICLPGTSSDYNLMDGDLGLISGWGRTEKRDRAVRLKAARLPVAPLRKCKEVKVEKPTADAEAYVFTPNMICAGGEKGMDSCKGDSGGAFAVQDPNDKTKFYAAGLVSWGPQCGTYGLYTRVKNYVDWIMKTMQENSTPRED
Source text: as §1

[4] = system: late components of human complement (C3-C9); assay: Test Code 035 (C3-C9 inhibitor), lysis of EAC 142; format: biochemical; conditions: activity in wells, twofold serial dilution assay; higher well number indicates higher activity
Source text: as §1

In the case of `O=S(=O)([O-])c1cc(NS(=O)(=O)c2cc(S(=O)(=O)Nc3cc(S(=O)(=O)[O-])cc(S(=O)(=O)[O-])c3)c3cc(S(=O)(=O)Nc4cc(S(=O)(=O)[O-])cc(S(=O)(=O)[O-])c4)cc(S(=O)(=O)Nc4cc(S(=O)(=O)[O-])cc(S(=O)(=O)[O-])c4)c3c2)cc(S(=O)(=O)[O-])c1.[Na+].[Na+].[Na+].[Na+].[Na+].[Na+].[Na+].[Na+]` [5,5',5",5"'-[1,3,5,7-Naphthalenetetrayltetrakis(sulfonylimino)]tetrakis-1,3-benzenedisulfonic acid, octasodium salt], the “Shunt Inhibition 036* Wells” value [1] is reported as “+7 Wells”, the inhibition at 200 mg/kg ([2]; 0.5 h, serum 30 minutes after injection, read-out: In Vivo Activity (Guinea Pig) % Inhibition Intraperitoneal, 30 minutes) is reported as -62% and the inhibition at 200 mg/kg ([2]; 1 h, serum 60 minutes after injection, read-out: In Vivo Activity (Guinea Pig) % Inhibition Intraperitoneal, 60 minutes) is reported as -59%. The inhibition at 200 mg/kg ([2]; 2 h, serum 120 minutes after injection, read-out: In Vivo Activity (Guinea Pig) % Inhibition Intraperitoneal, 120 minutes) was -81%, the “Cl 026* Wells” value [3] was “+10 Wells” and the “C-Late 035* Wells” value [4] was “+1 Wells”.
